Measurements: PubChem BioAssay AID1963979 (Molecular Pharmacology Branch, DTP, NCI, 2024)
pIC50: −log10 of the molar value. Blank lines part the entries; values can stand above or below the compound they belong to.

Tested on: 361931-004-R-J1-PDC multicell spheroid viability
Assay: Anticancer human tumor 361931-004-R-J1-PDC patient-derived colon adenocarcinoma cell line growth inhibition [PI3K]
Conditions: for pIC50: curve of first compound; for viability, T/C: stronger effect = lower value
In short: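 Viability of mixed-cell spheroids was determined after exposure to pairwise combinations, one partner being inavolisib, alpelisib, duvelisib or copanlisib. Highest tested concentration matched clinical Cmax where known and 10 microM where not, descending in half-log steps.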

[1] = second compound 0.0316 µM, first compound 0.0316 µM
[2] = second compound 0.0316 µM, first compound 0.1 µM
[3] = second compound 0.1 µM, first compound 0.0316 µM
[4] = second compound 0.1 µM, first compound 0.1 µM
[5] = second compound 0.316 µM, first compound 0.0316 µM
[6] = second compound 0.316 µM, first compound 0.1 µM
[7] = second compound 1 µM, first compound 0.0316 µM
[8] = second compound 1 µM, first compound 0.1 µM
[9] = second compound 3.16 µM, first compound 0.0316 µM
[10] = second compound 3.16 µM, first compound 0.1 µM
[11] = second compound 10 µM, first compound 0.0316 µM
[12] = second compound 10 µM, first compound 0.1 µM
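Note: spheroids exposed to agents for seven days before readout.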

- pIC50 (second compound 0.0316 µM): < 7.00
- pIC50 (second compound 0.1 µM): < 7.00
- pIC50 (second compound 0.316 µM): < 7.00
- pIC50 (second compound 1 µM): < 7.00
- pIC50 (second compound 3.16 µM): < 7.00
- pIC50 (second compound 10 µM): 7.25
Compound: CC(=O)c1c(C)c2cnc(Nc3ccc(N4CCNCC4)cn3)nc2n(C2CCCC2)c1=O + Cc1nc(NC(=O)N2CCCC2C(N)=O)sc1-c1ccnc(C(C)(C)C(F)(F)F)c1
- viability, T/C (second compound 0.0316 µM, first compound 0.000316 µM): 110%
- viability, T/C (second compound 0.0316 µM, first compound 0.001 µM): 105%
- viability, T/C (second compound 0.0316 µM, first compound 0.00316 µM): 101%
- viability, T/C (second compound 0.0316 µM, first compound 0.01 µM): 98.7%
- viability, T/C [1]: 99.6%
- viability, T/C [2]: 78.2%
- viability, T/C (second compound 0.1 µM, first compound 0.000316 µM): 109%
- viability, T/C (second compound 0.1 µM, first compound 0.001 µM): 106%
- viability, T/C (second compound 0.1 µM, first compound 0.00316 µM): 96.8%
- viability, T/C (second compound 0.1 µM, first compound 0.01 µM): 94.8%
- viability, T/C [3]: 90.7%
- viability, T/C [4]: 81.5%
- viability, T/C (second compound 0.316 µM, first compound 0.000316 µM): 106%
- viability, T/C (second compound 0.316 µM, first compound 0.001 µM): 96.6%
- viability, T/C (second compound 0.316 µM, first compound 0.00316 µM): 104%
- viability, T/C (second compound 0.316 µM, first compound 0.01 µM): 97.8%
- viability, T/C [5]: 83.1%
- viability, T/C [6]: 83%
- viability, T/C (second compound 1 µM, first compound 0.000316 µM): 97%
- viability, T/C (second compound 1 µM, first compound 0.001 µM): 93.3%
- viability, T/C (second compound 1 µM, first compound 0.00316 µM): 84.9%
- viability, T/C (second compound 1 µM, first compound 0.01 µM): 91.9%
- viability, T/C [7]: 90.2%
- viability, T/C [8]: 65.2%
- viability, T/C (second compound 3.16 µM, first compound 0.000316 µM): 80.7%
- viability, T/C (second compound 3.16 µM, first compound 0.001 µM): 70.6%
- viability, T/C (second compound 3.16 µM, first compound 0.00316 µM): 76.5%
- viability, T/C (second compound 3.16 µM, first compound 0.01 µM): 77.7%
- viability, T/C [9]: 65.7%
- viability, T/C [10]: 52.6%
- viability, T/C (second compound 10 µM, first compound 0.000316 µM): 66.7%
- viability, T/C (second compound 10 µM, first compound 0.001 µM): 75.9%
- viability, T/C (second compound 10 µM, first compound 0.00316 µM): 65%
- viability, T/C (second compound 10 µM, first compound 0.01 µM): 58.4%
- viability, T/C [11]: 56.5%
- viability, T/C [12]: 45.1%

- pIC50 (second compound 0.0316 µM): < 5.00
- pIC50 (second compound 0.1 µM): < 5.00
- pIC50 (second compound 0.316 µM): < 5.00
- pIC50 (second compound 1 µM): < 5.00
- pIC50 (second compound 3.16 µM): < 5.00
- pIC50 (second compound 10 µM): < 5.00
Compound: CNC(=O)c1ccc(N2C(=S)N(c3ccc(C#N)c(C(F)(F)F)c3)C(=O)C2(C)C)cc1F + Cc1nc(NC(=O)N2CCCC2C(N)=O)sc1-c1ccnc(C(C)(C)C(F)(F)F)c1
- viability, T/C [1]: 113%
- viability, T/C [2]: 101%
- viability, T/C (second compound 0.0316 µM, first compound 0.316 µM): 91%
- viability, T/C (second compound 0.0316 µM, first compound 1 µM): 90.8%
- viability, T/C (second compound 0.0316 µM, first compound 3.16 µM): 98%
- viability, T/C (second compound 0.0316 µM, first compound 10 µM): 99.6%
- viability, T/C [3]: 106%
- viability, T/C [4]: 101%
- viability, T/C (second compound 0.1 µM, first compound 0.316 µM): 87.4%
- viability, T/C (second compound 0.1 µM, first compound 1 µM): 94.4%
- viability, T/C (second compound 0.1 µM, first compound 3.16 µM): 93.3%
- viability, T/C (second compound 0.1 µM, first compound 10 µM): 86.6%
- viability, T/C [5]: 99.2%
- viability, T/C [6]: 90.8%
- viability, T/C (second compound 0.316 µM, first compound 0.316 µM): 100%
- viability, T/C (second compound 0.316 µM, first compound 1 µM): 104%
- viability, T/C (second compound 0.316 µM, first compound 3.16 µM): 104%
- viability, T/C (second compound 0.316 µM, first compound 10 µM): 95.8%
- viability, T/C [7]: 94.1%
- viability, T/C [8]: 93.5%
- viability, T/C (second compound 1 µM, first compound 0.316 µM): 80%
- viability, T/C (second compound 1 µM, first compound 1 µM): 94.5%
- viability, T/C (second compound 1 µM, first compound 3.16 µM): 94.1%
- viability, T/C (second compound 1 µM, first compound 10 µM): 85.6%
- viability, T/C [9]: 83.2%
- viability, T/C [10]: 82.9%
- viability, T/C (second compound 3.16 µM, first compound 0.316 µM): 91.3%
- viability, T/C (second compound 3.16 µM, first compound 1 µM): 84.2%
- viability, T/C (second compound 3.16 µM, first compound 3.16 µM): 98%
- viability, T/C (second compound 3.16 µM, first compound 10 µM): 70.3%
- viability, T/C [11]: 70.2%
- viability, T/C [12]: 67.1%
- viability, T/C (second compound 10 µM, first compound 0.316 µM): 59.3%
- viability, T/C (second compound 10 µM, first compound 1 µM): 69.1%
- viability, T/C (second compound 10 µM, first compound 3.16 µM): 76.1%
- viability, T/C (second compound 10 µM, first compound 10 µM): 45.2%

- pIC50 (second compound 0.0316 µM): < 5.52
- pIC50 (second compound 0.1 µM): 5.67
- pIC50 (second compound 0.316 µM): 5.93
- pIC50 (second compound 1 µM): 6.13
- pIC50 (second compound 3.16 µM): 6.69
- pIC50 (second compound 10 µM): 7.51
Compound: Cn1cnc2c(F)c(Nc3ccc(Br)cc3Cl)c(C(=O)NOCCO)cc21 + Cc1nc(NC(=O)N2CCCC2C(N)=O)sc1-c1ccnc(C(C)(C)C(F)(F)F)c1
- viability, T/C (second compound 0.0316 µM, first compound 0.00949 µM): 96.2%
- viability, T/C (second compound 0.0316 µM, first compound 0.03 µM): 95.8%
- viability, T/C (second compound 0.0316 µM, first compound 0.0949 µM): 82.2%
- viability, T/C (second compound 0.0316 µM, first compound 0.3 µM): 78.8%
- viability, T/C (second compound 0.0316 µM, first compound 0.949 µM): 75.8%
- viability, T/C (second compound 0.0316 µM, first compound 3 µM): 48.3%
- viability, T/C (second compound 0.1 µM, first compound 0.00949 µM): 107%
- viability, T/C (second compound 0.1 µM, first compound 0.03 µM): 106%
- viability, T/C (second compound 0.1 µM, first compound 0.0949 µM): 83.7%
- viability, T/C (second compound 0.1 µM, first compound 0.3 µM): 84.5%
- viability, T/C (second compound 0.1 µM, first compound 0.949 µM): 70.4%
- viability, T/C (second compound 0.1 µM, first compound 3 µM): 41%
- viability, T/C (second compound 0.316 µM, first compound 0.00949 µM): 103%
- viability, T/C (second compound 0.316 µM, first compound 0.03 µM): 89.5%
- viability, T/C (second compound 0.316 µM, first compound 0.0949 µM): 79.2%
- viability, T/C (second compound 0.316 µM, first compound 0.3 µM): 74%
- viability, T/C (second compound 0.316 µM, first compound 0.949 µM): 57.1%
- viability, T/C (second compound 0.316 µM, first compound 3 µM): 29.7%
- viability, T/C (second compound 1 µM, first compound 0.00949 µM): 95.9%
- viability, T/C (second compound 1 µM, first compound 0.03 µM): 92.7%
- viability, T/C (second compound 1 µM, first compound 0.0949 µM): 75.6%
- viability, T/C (second compound 1 µM, first compound 0.3 µM): 68%
- viability, T/C (second compound 1 µM, first compound 0.949 µM): 44.4%
- viability, T/C (second compound 1 µM, first compound 3 µM): 27.5%
- viability, T/C (second compound 3.16 µM, first compound 0.00949 µM): 82.7%
- viability, T/C (second compound 3.16 µM, first compound 0.03 µM): 77.6%
- viability, T/C (second compound 3.16 µM, first compound 0.0949 µM): 61.9%
- viability, T/C (second compound 3.16 µM, first compound 0.3 µM): 40%
- viability, T/C (second compound 3.16 µM, first compound 0.949 µM): 29.3%
- viability, T/C (second compound 3.16 µM, first compound 3 µM): 6.45%
- viability, T/C (second compound 10 µM, first compound 0.00949 µM): 59%
- viability, T/C (second compound 10 µM, first compound 0.03 µM): 48.4%
- viability, T/C (second compound 10 µM, first compound 0.0949 µM): 35%
- viability, T/C (second compound 10 µM, first compound 0.3 µM): 12.5%
- viability, T/C (second compound 10 µM, first compound 0.949 µM): 4.2%
- viability, T/C (second compound 10 µM, first compound 3 µM): 1.47%
